Experimental findings from ChEMBL document CHEMBL5143517, “Discovery and radiosensitization research of ursolic acid derivatives as SENP1 inhibitors” (Eur J Med Chem, 2022) are described below.

SMILES strings stand for the structures.

This data set is described as follows: Cytotoxicity against human HeLa cells assessed as inhibition of cell growth incubated for 72 hrs by CCK-8 assay. It is filed as toxicity, cell-based. In general terms: Tetrazolium assays rely on reduction of a dye to a coloured formazan, in cell work by metabolically active cells.
What is called IC50 is the concentration that gives 50% inhibition. As to `C[C@H]1[C@H](C)CC[C@]2(C(=O)OCc3ccccc3)CC[C@]3(C)C(=CC[C@@H]4[C@@]5(C)CC[C@H](O)C(C)(C)[C@@H]5CC[C@]43C)[C@H]12`, the IC50 at 72 h was greater than 20 µM.
As for `COC(=O)COC(=O)[C@]12CC[C@@H](C)[C@H](C)[C@H]1C1=CC[C@@H]3[C@@]4(C)CC[C@H](O)C(C)(C)[C@@H]4CC[C@@]3(C)[C@]1(C)CC2` [3BETA-HYDROXY-URS-12-EN-28-METHYL ACETOACETATE], the figure is greater than 20 µM; as for `CC(=O)O[C@H]1CC[C@]2(C)[C@H]3CC=C4[C@@H]5[C@@H](C)[C@H](C)CC[C@]5(C(=O)NCC(=O)O)CC[C@@]4(C)[C@]3(C)CC[C@H]2C1(C)C`, greater than 20 µM; as for `COC(=O)[C@@H]1CCCN1CCOC(=O)[C@]12CC[C@@H](C)[C@H](C)[C@H]1C1=CC[C@@H]3[C@@]4(C)CC[C@H](O)C(C)(C)[C@@H]4CC[C@@]3(C)[C@]1(C)CC2`, greater than 20 µM.
As for `C[C@H]1[C@H](C)CC[C@]2(C(=O)N[C@@H](C)c3ccccc3)CC[C@]3(C)C(=CC[C@@H]4[C@@]5(C)CC[C@H](O)C(C)(C)[C@@H]5CC[C@]43C)[C@H]12`, the figure is greater than 20 µM; as for `CC(=O)O[C@H]1CC[C@]2(C)[C@H]3CC=C4[C@@H]5[C@@H](C)[C@H](C)CC[C@]5(C(=O)O)CC[C@@]4(C)[C@]3(C)CC[C@H]2C1(C)C` [O-ACETYLURSOLIC ACID], greater than 20 µM; as for `COC(=O)[C@@H]1CCCN1C(=O)[C@]12CC[C@@H](C)[C@H](C)[C@H]1C1=CC[C@@H]3[C@@]4(C)CC[C@H](OC(C)=O)C(C)(C)[C@@H]4CC[C@@]3(C)[C@]1(C)CC2`, greater than 20 µM.
The figure for `C[C@H]1[C@H](C)CC[C@]2(C(=O)OCCBr)CC[C@]3(C)C(=CC[C@@H]4[C@@]5(C)CC[C@H](O)C(C)(C)[C@@H]5CC[C@]43C)[C@H]12` is greater than 20 µM; for `C[C@H]1[C@H](C)CC[C@]2(C(=O)NCCC(=O)O)CC[C@]3(C)C(=CC[C@@H]4[C@@]5(C)CC[C@H](O)C(C)(C)[C@@H]5CC[C@]43C)[C@H]12` it is greater than 20 µM.
With `C[C@H]1[C@H](C)CC[C@]2(C(=O)OCCO)CC[C@]3(C)C(=CC[C@@H]4[C@@]5(C)CC[C@H](O)C(C)(C)[C@@H]5CC[C@]43C)[C@H]12`, the IC50 at 72 h was greater than 20 µM.
As for `COC(=O)CCNC(=O)[C@]12CC[C@@H](C)[C@H](C)[C@H]1C1=CC[C@@H]3[C@@]4(C)CC[C@H](OC(C)=O)C(C)(C)[C@@H]4CC[C@@]3(C)[C@]1(C)CC2`, the figure is greater than 20 µM; as for `C[C@H]1[C@H](C)CC[C@]2(C(=O)N(C)CC(=O)O)CC[C@]3(C)C(=CC[C@@H]4[C@@]5(C)CC[C@H](O)C(C)(C)[C@@H]5CC[C@]43C)[C@H]12`, greater than 20 µM; as for `C[C@H]1[C@H](C)CC[C@]2(C(=O)OCCN3CCOCC3)CC[C@]3(C)C(=CC[C@@H]4[C@@]5(C)CC[C@H](O)C(C)(C)[C@@H]5CC[C@]43C)[C@H]12`, greater than 20 µM.
As for `COC(=O)[C@]12CC[C@@H](C)[C@H](C)[C@H]1C1=CC[C@@H]3[C@@]4(C)CC[C@H](OC(C)=O)C(C)(C)[C@@H]4CC[C@@]3(C)[C@]1(C)CC2`, the figure is greater than 20 µM.
`C[C@H]1[C@H](C)CC[C@]2(C(=O)N3CCC[C@H]3C(=O)O)CC[C@]3(C)C(=CC[C@@H]4[C@@]5(C)CC[C@H](O)C(C)(C)[C@@H]5CC[C@]43C)[C@H]12`: the IC50 at 72 h was greater than 20 µM.
The figure for `C[C@H]1[C@H](C)CC[C@]2(C(=O)OCCCCN3CCNCC3)CC[C@]3(C)C(=CC[C@@H]4[C@@]5(C)CC[C@H](O)C(C)(C)[C@@H]5CC[C@]43C)[C@H]12` is 5.7 µM; for `CC(=O)O[C@H]1CC[C@]2(C)[C@H]3CC=C4[C@@H]5[C@@H](C)[C@H](C)CC[C@]5(C(=O)NCC(N)=O)CC[C@@]4(C)[C@]3(C)CC[C@H]2C1(C)C` it is greater than 20 µM; for `C[C@H]1[C@H](C)CC[C@]2(C(=O)NCCBr)CC[C@]3(C)C(=CC[C@@H]4[C@@]5(C)CC[C@H](O)C(C)(C)[C@@H]5CC[C@]43C)[C@H]12` it is greater than 20 µM.
The figure for `COC(=O)CNC(=O)[C@]12CC[C@@H](C)[C@H](C)[C@H]1C1=CC[C@@H]3[C@@]4(C)CC[C@H](OC(C)=O)C(C)(C)[C@@H]4CC[C@@]3(C)[C@]1(C)CC2` is greater than 20 µM; for `C[C@H]1[C@H](C)CC[C@]2(C(=O)OCCN3CCNCC3)CC[C@]3(C)C(=CC[C@@H]4[C@@]5(C)CC[C@H](O)C(C)(C)[C@@H]5CC[C@]43C)[C@H]12` it is greater than 20 µM.
The figure for `CC(=O)O[C@H]1CC[C@]2(C)[C@H]3CC=C4[C@@H]5[C@@H](C)[C@H](C)CC[C@]5(C(=O)N[C@@H](C)c5ccccc5)CC[C@@]4(C)[C@]3(C)CC[C@H]2C1(C)C` is greater than 20 µM; for `C[C@H]1[C@H](C)CC[C@]2(C(=O)OCC(=O)NCCO)CC[C@]3(C)C(=CC[C@@H]4[C@@]5(C)CC[C@H](O)C(C)(C)[C@@H]5CC[C@]43C)[C@H]12` it is greater than 20 µM; for `CNC(=O)CNC(=O)[C@]12CC[C@@H](C)[C@H](C)[C@H]1C1=CC[C@@H]3[C@@]4(C)CC[C@H](OC(C)=O)C(C)(C)[C@@H]4CC[C@@]3(C)[C@]1(C)CC2` it is greater than 20 µM.
On to `C[C@H]1[C@H](C)CC[C@]2(C(=O)OCCNC(=O)OC(C)(C)C)CC[C@]3(C)C(=CC[C@@H]4[C@@]5(C)CC[C@H](O)C(C)(C)[C@@H]5CC[C@]43C)[C@H]12`, for which the IC50 at 72 h was greater than 20 µM.
As for `CNC(=O)CCNC(=O)[C@]12CC[C@@H](C)[C@H](C)[C@H]1C1=CC[C@@H]3[C@@]4(C)CC[C@H](O)C(C)(C)[C@@H]4CC[C@@]3(C)[C@]1(C)CC2`, the figure is greater than 20 µM; as for `C[C@H]1[C@H](C)CC[C@]2(C(N)=O)CC[C@]3(C)C(=CC[C@@H]4[C@@]5(C)CC[C@H](O)C(C)(C)[C@@H]5CC[C@]43C)[C@H]12`, greater than 20 µM.
Turning to `CNC(=O)CN(C)C(=O)[C@]12CC[C@@H](C)[C@H](C)[C@H]1C1=CC[C@@H]3[C@@]4(C)CC[C@H](OC(C)=O)C(C)(C)[C@@H]4CC[C@@]3(C)[C@]1(C)CC2`, the IC50 at 72 h is greater than 20 µM.
As for `COC(=O)[C@]12CC[C@@H](C)[C@H](C)[C@H]1C1=CC[C@@H]3[C@@]4(C)CC[C@H](OC=O)C(C)(C)[C@@H]4CC[C@@]3(C)[C@]1(C)CC2`, the figure is greater than 20 µM.
The figure for `COC(=O)[C@]12CC[C@@H](C)[C@H](C)[C@H]1C1=CC[C@@H]3[C@@]4(C)CC[C@H](O)C(C)(C)[C@@H]4CC[C@@]3(C)[C@]1(C)CC2` [METHYL URSOLATE] is greater than 20 µM; for `CC(=O)O[C@H]1CC[C@]2(C)[C@H]3CC=C4[C@@H]5[C@@H](C)[C@H](C)CC[C@]5(C(N)=O)CC[C@@]4(C)[C@]3(C)CC[C@H]2C1(C)C` it is greater than 20 µM.
`C[C@H]1[C@H](C)CC[C@]2(C(=O)OCCN3CCN(C)CC3)CC[C@]3(C)C(=CC[C@@H]4[C@@]5(C)CC[C@H](O)C(C)(C)[C@@H]5CC[C@]43C)[C@H]12`: the IC50 at 72 h is greater than 20 µM.
The figure for `C[C@H]1[C@H](C)CC[C@]2(C(=O)OCCN3CCNC(=O)C3)CC[C@]3(C)C(=CC[C@@H]4[C@@]5(C)CC[C@H](O)C(C)(C)[C@@H]5CC[C@]43C)[C@H]12` is greater than 20 µM; for `C[C@H]1[C@H](C)CC[C@]2(C(=O)NCC(=O)N(C)CCO)CC[C@]3(C)C(=CC[C@@H]4[C@@]5(C)CC[C@H](O)C(C)(C)[C@@H]5CC[C@]43C)[C@H]12` it is greater than 20 µM; for `C[C@H]1[C@H](C)CC[C@]2(C(=O)OCCCCBr)CC[C@]3(C)C(=CC[C@@H]4[C@@]5(C)CC[C@H](O)C(C)(C)[C@@H]5CC[C@]43C)[C@H]12` [BROMOBUTYL-3BETA-HYDROXY-URS-12-EN-28-OATE] it is greater than 20 µM.
The figure for `CC(=O)O[C@H]1CC[C@]2(C)[C@H]3CC=C4[C@@H]5[C@@H](C)[C@H](C)CC[C@]5(C(=O)NCCBr)CC[C@@]4(C)[C@]3(C)CC[C@H]2C1(C)C` is greater than 20 µM; for `C[C@H]1[C@H](C)CC[C@]2(C(=O)NCC(=O)O)CC[C@]3(C)C(=CC[C@@H]4[C@@]5(C)CC[C@H](O)C(C)(C)[C@@H]5CC[C@]43C)[C@H]12` it is greater than 20 µM.
As for `C[C@H]1[C@H](C)CC[C@]2(C(=O)NCC(=O)N(CCO)CCO)CC[C@]3(C)C(=CC[C@@H]4[C@@]5(C)CC[C@H](O)C(C)(C)[C@@H]5CC[C@]43C)[C@H]12`, the figure is greater than 20 µM.
With `C[C@H]1[C@H](C)CC[C@]2(C(=O)OCCN3CCN(CCO)CC3)CC[C@]3(C)C(=CC[C@@H]4[C@@]5(C)CC[C@H](O)C(C)(C)[C@@H]5CC[C@]43C)[C@H]12`, the half-inhibitory concentration (IC50) at 72 h is greater than 20 µM.
As for `C[C@H]1[C@H](C)CC[C@]2(C(=O)NCC(=O)NCC(O)CO)CC[C@]3(C)C(=CC[C@@H]4[C@@]5(C)CC[C@H](O)C(C)(C)[C@@H]5CC[C@]43C)[C@H]12` (some centres undefined), the figure is greater than 20 µM; as for `C[C@H]1[C@H](C)CC[C@]2(C(=O)OCCCCN3CCOCC3)CC[C@]3(C)C(=CC[C@@H]4[C@@]5(C)CC[C@H](O)C(C)(C)[C@@H]5CC[C@]43C)[C@H]12`, greater than 20 µM; as for `CNC(=O)COC(=O)[C@]12CC[C@@H](C)[C@H](C)[C@H]1C1=CC[C@@H]3[C@@]4(C)CC[C@H](O)C(C)(C)[C@@H]4CC[C@@]3(C)[C@]1(C)CC2`, greater than 20 µM.
Consider `C[C@H]1[C@H](C)CC[C@]2(C(=O)OCC(=O)N(C)CCO)CC[C@]3(C)C(=CC[C@@H]4[C@@]5(C)CC[C@H](O)C(C)(C)[C@@H]5CC[C@]43C)[C@H]12`, for which the IC50 at 72 h is greater than 20 µM.
The figure for `C[C@H]1[C@H](C)CC[C@]2(C(=O)OCC3CCN(C(=O)OC(C)(C)C)CC3)CC[C@]3(C)C(=CC[C@@H]4[C@@]5(C)CC[C@H](O)C(C)(C)[C@@H]5CC[C@]43C)[C@H]12` is greater than 20 µM; for `C[C@H]1[C@H](C)CC[C@]2(C(=O)OCCN3CCN(c4cccc(C(F)(F)F)c4)CC3)CC[C@]3(C)C(=CC[C@@H]4[C@@]5(C)CC[C@H](O)C(C)(C)[C@@H]5CC[C@]43C)[C@H]12` it is greater than 20 µM.
